Experimental data reported in US6803186B2, “Compositions and methods for increasing amino acid absorption in mammals” (The IAMS Company, priority 2001, dated 2004).
Where “and” joins values, the source holds several entries; their conditions need not be identical. Equal entries are not always repeated. Peptide text beside a SMILES is read from it.

B1: canine PepT1 (cPepT1) (Canis lupus familiaris) (protein)
chain: MGMSKSYGCFGYPLSIFFIVVNEFCERFSYYGMRALLILYFRRFIGWDDNLSTAIYHTFVALCYLTPILGALIADSWLGKFKTIVSLSIVYTIGQAVTAVSSINDLTDYNKDGTPDNLSVHVALSMIGLALIALGTGGIKPCVSAFGGDQFEEGQEKQRNRFFSIFYLAINAGSLISTIVTPMLRVHECGIYSQKACYPLAFGVPAALMAVSLIVFVIGSGMYKKFQPQGNVMGKVVKCIGFALKNRFRHRSKQFPKREHWLDWAKEKYDERLISQIKMVTKVMFLYIPLPMFWALFDQQGSRWTLQATAMSGKIGLLEVQPDQMQTVNAILIVVMVPIMDAVVYPLIAKCGFNFTSLKRMTVGMFLASMAFVMAAIVQLEIDKTLPVFPKQNEVQIKVLNIGNGAMNVSFPGAVVTVSQMSQSDGFMTFDVDKLTSINISSTGSPVIPVTYNFEQGHRHTLLVWAPNNYRVVKDGLNQKPEKGENGIRFINSLNESLNITMGDKVYVNVTSHNASEYQFFSLGTKNITISSTQQISQNCTKVLQSSNLEFGSAYTYVIGTQSTGCPELHMFEDISPNTVNMALQIPQYFLITCGEVVFSVTGLEFSYSQAPSNMKSVLQAGWLLTVAVGNIIVLIVAGAGQFSEQWAEYILFAALLLVVCVIFAIMARFYTYVNPAEIEAQFDDDEKKNLEKMNVYSTVTPVSQTQM
notes: endogenous in cells; host or cells: MDCK (Madin-Darby Canine Kidney) cells, whole-cell [3H]-GlySar uptake

Columns and labels:
canine PepT1 (cPepT1) [1] = biological target: T1, canine PepT1 (cPepT1) (Canis lupus familiaris, UniProt Q8WMX5); test: Inhibition of H+-dependent 100 μM GlySar uptake by MDCK cells cultured in LHM; type: cell-based; settings: for % inhibition of H+-dependent GlySar uptake: 1 mM extracellular substrate, 100 μM GlySar, pH 6.0, 30 min
T1 construct: endogenous in cells; host or cells: MDCK (Madin-Darby Canine Kidney) cells, whole-cell [3H]-GlySar uptake
T1 sequence (Q8WMX5 1-708): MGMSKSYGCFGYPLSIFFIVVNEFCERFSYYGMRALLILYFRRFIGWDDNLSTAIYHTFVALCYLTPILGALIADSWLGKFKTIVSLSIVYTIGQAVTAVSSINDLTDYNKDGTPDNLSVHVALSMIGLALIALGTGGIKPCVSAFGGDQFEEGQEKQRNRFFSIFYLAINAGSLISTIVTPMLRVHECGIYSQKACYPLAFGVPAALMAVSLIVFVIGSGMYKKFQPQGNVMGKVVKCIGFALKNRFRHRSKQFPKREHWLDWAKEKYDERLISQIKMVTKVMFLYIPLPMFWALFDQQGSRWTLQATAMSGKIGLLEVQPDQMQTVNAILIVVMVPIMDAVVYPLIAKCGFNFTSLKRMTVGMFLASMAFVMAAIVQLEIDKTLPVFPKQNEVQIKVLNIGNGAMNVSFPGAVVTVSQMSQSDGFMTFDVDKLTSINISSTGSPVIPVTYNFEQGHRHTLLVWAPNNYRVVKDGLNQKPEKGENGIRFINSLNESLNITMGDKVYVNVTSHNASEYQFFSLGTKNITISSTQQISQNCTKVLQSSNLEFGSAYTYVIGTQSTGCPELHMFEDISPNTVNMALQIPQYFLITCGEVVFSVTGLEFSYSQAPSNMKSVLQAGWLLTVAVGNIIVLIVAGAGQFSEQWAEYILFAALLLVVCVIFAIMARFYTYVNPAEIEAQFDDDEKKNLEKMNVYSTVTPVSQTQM
Procedure: Characteristic hallmarks of low affinity H^+/peptide cotransport activity, classically defined using membrane vesicles of several species, and more recently by functional expression studies using human, rat, and rabbit PepT1 cDNA, is the recognition of some, but not all, β-lactam antibiotics. […] To determine whether MDCK cPepT1 activity shared these functional features, the uptake of 100 μM GlySar in the absence and presence of pH 7.5 and pH 6.0 buffer, and, in pH 6.0 buffers, the presence of 1 mM additional GlySar (self-inhibitor control), 3 mM Penicillin-G, 30 μM cefadroxil, or 3 mM cefadroxil was compared (FIG. 13).
Other hallmarks of PepT1 function are the decreased ability of Gly-containing peptides to inhibit GlySar, in proportion to their length, and sensitivity to inhibition by carnosine (β-Ala-His).
Accordingly, the following general regimen was used to perform a series of experiments that evaluated the relative abilities of candidate di-(primarily) and tri-peptides to inhibit GlySar uptake by endogenously expressed cPepT1 in MDCK cells:
1. Sixty thousand cells/well were plated into collagen-coated 24-well trays and cultured at 37° C. in an atmosphere of 95% air/5% CO2 in DMEM/10% FCS that contained antibiotics for 1 day.
2. The media was removed and cells were cultured in LHM/10% FCS/antibiotics for 1 day.
3. The media was removed and cells cultured in LHM/10% FCS (no antibiotics) for 20 h.
4. The media was removed and cells cultured for 30 min in air at 37° C. in depletion medium (25 mM Hepes/Tris (pH 7.5), 140 mM NaCl, 5.4 mM KCl, 1.8 mM CaCl2, 0.8 mM MgSO4, and 5 mM glucose, to normalize intracellular nutrient pools.
(§1) 5. Transport was initiated by replacing depletion medium with uptake medium (depletion medium adjusted to pH 6.0 or kept at pH 7.4) that contained 100 μM GlySar (at a specific activity of 5 μCi/mL, with [^3H]-GlySar supplying 2.88% of total GlySar substrate) and (or) 1 mM of inhibiting peptide.
In total, 23 inhibitory peptides and 2 drug compounds were screened using this protocol.

MDCK cells = test: Inhibition of H+-independent GlySar uptake by MDCK cells; type: cell-based, canine; settings: 1 mM peptide, 100 μM GlySar
Procedure: as §1

canine PepT1 (cPepT1) [2] = biological target: T1, canine PepT1 (cPepT1); test: Competitor substrate inhibition of [3H]-GlySar uptake by confluent MDCK cells (Example 1); type: cell-based; settings: for inhibition of H+-dependent uptake of GlySar: 10 mM competitor; for Glysylsarcosine uptake: extracellular pH 6.0, 10 mM competitor, 2.88 [3H]-glycylsarcosine, 30 min; for % inhibition of pH 6.0 uptake: pH 6.0, 10 mM competitor
Procedure: (§2) Potential expression of PepT1 transport activity (H^+-dependent, dipeptide inhibitable, low-affinity dipeptide transport) by confluent MDCK cells was evaluated using whole-cell transport techniques and glycylsarcosine (GlySar) as a model dipeptide substrate. Cells were seeded at 60,000 cells/cm^2 into 24-well trays that had been coated with rat tail collagen or poly-L-lysine and cultured ([…]:5% CO2 at 37° C.) for 3 d in media consisting of Dulbecco's Modified Eagle Medium/10% fetal calf serum/1% antimicrobial antibacterial medium. Absorption (pmols/mg protein) of [^3H]-glycyl-L-sarcosine (GlySar, 6 mCi/mL, Moravek Biochemicals, Brea, Calif.) was determined using the 24-well cluster tray method and representative scintillation counting. Before transport, cells were incubated at 37° C. for 30 min in 25 mM Hepes/Tris (pH 7.5), 140 mM NaCl, 5.4 mM KCl, 1.8 mM CaCl2, 0.8 mM MgSO4, and 5 mM glucose (uptake buffer) to normalize intracellular amino acid and peptide pools. Transport was initiated by the addition of 0.25 mL of uptake buffer that contained 2.88 μm GlySar. After 30 min of uptake at 37° C., transport was terminated by rapid washing of cells with 4×2 mL 4° C. uptake buffer. Cellular protein was precipitated with 10% trichloroacetic acid and the supernatant recovered and counted to determine radioactivity (^3H) content. Cellular protein was then solubilized in 0.2 N NaOH and 0.2% SDS and quantified by the Lowry procedure, using bovine serum albumin as a standard. The amount of H^+-dependent GlySar absorbed was calculated as the difference between uptake in pH 6.0 and pH 7.5 uptake buffers. The amount of competitor substrate-inhibitable GlySar uptake was calculated as the quotient of GlySar uptake in the absence and presence of 10 mM competitor substrate (dipeptide or amino acid) multiplied by 100%.

canine PepT1 (cPepT1) [3] = biological target: T1, canine PepT1 (cPepT1); test: Inhibition of H+-dependent 100 μM GlySar uptake by MDCK cells cultured in LHM; type: cell-based; settings: 100 μM extracellular substrate
[4] = substrate: CN(CC(=O)O)C(=O)CN; test: Characterization of GlySar uptake by MDCK cells (Km, pH gradient, time course); type: cell-based, canine; settings: 37.0 °C
Procedure: as §2, with “Transport was initiated by the addition of 0.25 mL of uptake buffer that contained 2.88 μm GlySar. After 30 min of uptake at 37° C., transport was terminated by rapid washing of cells with 4×2 mL 4° C. uptake buffer.” left out
To preliminarily characterize the kinetic parameters of peptide transport by MDCK cells, the uptake of GlySar in media that contained pH 6.0 and 0.00064, 0.0025, 0.010, 0.04, 0.160, 0.640, 2.56, or 10.2 mM of GlySar was measured (FIG. 6). […]
To confirm that H^+-dependent GlySar uptake was saturable, and therefore mediated, the uptake of GlySar from pH 6.0 and 7.4 uptake buffers containing 0.025, 0.1, 0.4, 1.6, 6.4, or 25.6 mM GlySar was evaluated (FIG. 12). […]

Molecule	% inhibition of H+-dependent GlySar uptake (canine PepT1 (cPepT1) [1])	inhibition of H+-independent GlySar uptake (MDCK cells)	Glysylsarcosine uptake (canine PepT1 (cPepT1) [2]; collagen-coated trays)	Glysylsarcosine uptake (canine PepT1 (cPepT1) [2]; poly-L-lysine-coated trays)	% inhibition of H+-dependent GlySar uptake (canine PepT1 (cPepT1) [3])	also measured
NCC(=O)O [Gly]	5.0%	–	–	–	–	–
CC(C)C[C@H](N)C(=O)N[C@@H](Cc1c[nH]c2ccccc12)C(=O)O [LeuTrp]	113%	46%	7.68 ± 1.37 pmol 30 min^−1 mg^−1 protein	5.50 ± 0.58 pmol 30 min^−1 mg^−1 protein	58%	inhibition of H+-dependent uptake of GlySar (canine PepT1 (cPepT1) [2]; cells grown on collagen): 88%; inhibition of H+-dependent uptake of GlySar (canine PepT1 (cPepT1) [2]; cells grown on poly-lysine): 87%; % inhibition of pH 6.0 uptake (canine PepT1 (cPepT1) [2]; collagen-coated trays): 11.7%; % inhibition of pH 6.0 uptake (canine PepT1 (cPepT1) [2]; poly-L-lysine-coated trays): 13.0%
CC(C)C[C@H](N)C(=O)O [Leucine]	neither Leu nor Trp significantly influenced	–	63.0 ± 4.00 pmol 30 min^−1 mg^−1 protein	41.93 ± 2.70 pmol 30 min^−1 mg^−1 protein	–	–
CC1(C)S[C@@H]2[C@H](NC(=O)Cc3ccccc3)C(=O)N2[C@H]1C(=O)O [Penicillin-G]	0%	–	–	–	–	inhibition of H+-dependent GlySar uptake (canine PepT1 (cPepT1) [1]; 3 mM Penicillin-G, 100 μM GlySar (FIG. 13)): not inhibited
N[C@@H](Cc1c[nH]c2ccccc12)C(=O)O [Trp, tryptophan]	neither Leu nor Trp significantly influenced	–	–	–	–	–
CC(C)C[C@H](NC(=O)[C@@H](N)Cc1c[nH]c2ccccc12)C(=O)O [TrpLeu] (H-Trp-Leu-OH; N-terminus and C-terminus assumed)	117% and 116%	36%	5.21 ± 0.39 pmol 30 min^−1 mg^−1 protein	3.44 ± 0.27 pmol 30 min^−1 mg^−1 protein	92% and 94%	inhibition of H+-dependent uptake of GlySar (canine PepT1 (cPepT1) [2]; cells grown on collagen): 92%; inhibition of H+-dependent uptake of GlySar (canine PepT1 (cPepT1) [2]; cells grown on poly-lysine): 92%; % inhibition of pH 6.0 uptake (canine PepT1 (cPepT1) [2]; collagen-coated trays): 8.0%; % inhibition of pH 6.0 uptake (canine PepT1 (cPepT1) [2]; poly-L-lysine-coated trays): 8.1%
N[C@@H](Cc1c[nH]c2ccccc12)C(=O)N[C@@H](Cc1c[nH]c2ccccc12)C(=O)O [TrpTrp] (H-Trp-Trp-OH; N-terminus and C-terminus assumed)	–	about 22%	–	–	62%	–
MetGlyMetMet (MGMM; OTHER INFORMATION: tetrapeptide)	50%	–	–	–	–	–
[Gly]4 (GGGG) [positive control (model) substrate]	19%	–	–	–	–	–
B1	–	–	–	–	–	Km ([4]; other: MDCK cells seeded at 60K/well grown in LHM (FIG. 12)): 1100 µM and 1000 µM; Km ([4]; other: MDCK cells, only pH 6.0 uptake buffer, pH 6.0): 1100 µM; Km ([4]; other: confluent MDCK cells, pH 6.0 media, graphical evaluation (FIG. 6), pH 6.0): 4000 µM
